The source of these data is patent US7781590B2, “Piperidinylalkylcarbamate derivatives, methods for their preparation and the therapeutic use thereof as fatty acid amido hydrolase enzyme inhibitors” (Sanofi-Aventis, priority 2004, dated 2010).

Series [1] addresses T1, enzyme FAAH (fatty acid amide hydrolase) (Mus musculus, UniProt O08914).
T1 construct: Membrane homogenates are prepared at the time of use by homogenizing the tissues in a Polytron; from tissue; host or cells: mouse brain (minus the cerebellum), membrane homogenate
T1 sequence (O08914 1-579): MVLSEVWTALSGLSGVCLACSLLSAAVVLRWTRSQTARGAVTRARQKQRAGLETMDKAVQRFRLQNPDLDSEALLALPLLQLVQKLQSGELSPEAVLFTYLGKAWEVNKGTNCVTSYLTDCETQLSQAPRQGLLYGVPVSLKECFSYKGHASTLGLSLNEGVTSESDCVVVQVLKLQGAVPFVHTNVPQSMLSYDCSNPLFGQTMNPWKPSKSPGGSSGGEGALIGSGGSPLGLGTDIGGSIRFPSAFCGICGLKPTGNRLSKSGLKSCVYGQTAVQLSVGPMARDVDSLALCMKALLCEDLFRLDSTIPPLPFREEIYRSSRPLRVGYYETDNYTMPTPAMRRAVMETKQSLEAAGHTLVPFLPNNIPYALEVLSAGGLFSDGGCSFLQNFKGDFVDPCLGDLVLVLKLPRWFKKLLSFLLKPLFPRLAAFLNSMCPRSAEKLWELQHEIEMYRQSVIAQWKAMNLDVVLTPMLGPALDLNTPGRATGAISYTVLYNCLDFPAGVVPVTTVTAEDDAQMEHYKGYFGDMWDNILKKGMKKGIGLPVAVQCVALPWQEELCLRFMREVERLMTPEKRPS
Kind of series: radioenzymatic assay of FAAH inhibition (hydrolysis of anandamide [1-3H ethanolamine], mouse brain membrane homogenates). The series is classed as biochemical. The note with it: 10 μM anandamide, 15 minutes at 25° C., read-out: IC50 (concentration inhibiting by 50% the control enzymatic activity of FAAH). As for the experimental part:
The compounds of the invention were subjected to pharmacological tests allowing determination of their inhibitory effect on the enzyme FAAH (fatty acid amide hydrolase).
Accordingly, mouse brains (minus the cerebellum) are removed and stored at −80° C. Membrane homogenates are prepared at the time of use by homogenizing the tissues in a Polytron in a 10 mM Tris-HCl buffer (pH 8.0) containing 150 mM NaCl and 1 mM EDTA. The enzymatic reaction is subsequently conducted in 70 μl of buffer containing bovine serum albumin without fatty acids (1 mg/ml). In succession the test compounds, at various concentrations, anandamide [1-^3H ethanolamine] (specific activity: 15-20 Ci/mmol) diluted to 10 μM with cold anandamide, and the membrane preparation (400 μg of frozen tissue per assay) are added. After 15 minutes at 25° C., the enzymatic reaction is terminated by adding 140 μl of chloroform/methanol (2:1). The mixture is stirred for 10 minutes and then centrifuged for 15 minutes at 3500 g. An aliquot (30 μl) of the aqueous phase containing the ethanolamine [1-^3H] is counted by liquid scintillation.

Another series concerns male OF1 mice. Kind of series: analgesia test: abdominal stretches induced by PBQ (phenylbenzoquinone). The settings on record: 10 mg/kg p.o. at 120 minutes. The series is classed as in vivo. As to the method: The in vivo activity of the compounds of the invention was evaluated in an analgesia test.
Accordingly, intraperitoneal (i.p.) administration of PBQ (phenylbenzoquinone, 2 mg/kg in a 0.9% sodium chloride solution containing 5% of ethanol) to male OF1 mice weighing 25 to 30 g causes abdominal stretches, on average 30 twists or contractions during the period from 5 to 15 minutes after injection. The test compounds are administered orally (p.o.) or intraperitoneally (i.p.) in suspension in Tween 80 at 0.5%, 60 minutes or 120 minutes before the administration of PBQ.

Regarding `CNC(=O)COC(=O)NCC1CCN(CCOc2ccc(Cl)cc2Cl)CC1` [Compound 77], the IC50 in series [1] was 49 nM.

As to `CNC(=O)COC(=O)NCCC1CCN(Cc2ccc(-c3ccc(F)cc3)cc2F)CC1` [Compound 26, 2-(methylamino)-2-oxoethyl 2-{1-[(3,4′-difluorobiphenyl-4-yl)methyl]piperidin-4-yl}ethylcarbamate], the melting point (as a rule, the temperature, or range, at which the solid turns liquid) lay within 143 to 145 °C. Besides, in the series on male OF1 mice, the “reduction of the number of stretches induced by PBQ” value turned out to be 56%.

For the molecule `CNC(=O)COC(=O)NCCC1CCN(Cc2ccc(-c3ccccc3)cc2)CC1` [Compound 25, 2-(methylamino)-2-oxoethyl 2-[1-(biphenyl-4-ylmethyl)piperidin-4-yl]ethylcarbamate], the melting point lay within 106 to 110 °C. For the same molecule, the IC50 in series [1] worked out at 225 nM.
